Data as given in patent US8633219B2, “Combination therapy” (Japan Tobacco Inc., priority 2004, dated 2014).

Legend:
HIV-1IIIB = assay: Drug combination anti-HIV-1 cytoprotection assay (MacSynergy II) in CEM-SS cells infected with HIV-1IIIB; type: cell-based; settings: in combination with Compound A; for Antagonism Volume, Result 1 / Synergy Volume, Result 1 / Antagonism Volume, Result 2 / Synergy Volume, Result 2 / Antagonism Volume, Result 3 / Synergy Volume, Result 3: 95% confidence interval; for Antagonism Volume, Result 1 / Synergy Volume, Result 1: assay 1; for Antagonism Volume, Result 2 / Synergy Volume, Result 2: assay 2; for Antagonism Volume, Result 3 / Synergy Volume, Result 3: assay 3; for Mean Antagonism Volume / Mean Synergy Volume: n = 3
Description: This work was performed using the Prichard and Shipman MacSynergy II three-dimensional model for statistical evaluation of combination anti-HIV assays. Using a standard microtiter plate format, each combination assay was performed in CEM-SS T-lymphocytic cells acutely infected with the a laboratory-adapted strain, HIV-1IIIB, and viral growth/inhibition was evaluated by measuring by monitoring virus-induced cytopathic effects (CPE) at the experimental endpoint.
AZT was dissolved in sterile dH2O and the remainder of the control compounds were dissolved in DMSO for analysis in the combination assays. […] CEM-SS cells were passaged in T-75 flasks prior to use in the antiviral assay. On the day preceding the assay, the cells were split 1:2 to assure they were in an exponential growth phase at the time of infection. Total cell and viability quantification was performed using a hemacytometer and trypan blue exclusion.
The virus used for these tests was the lymphocytropic virus strain HIV-1IIIB. This virus was obtained from the NIH AIDS Research and Reference Reagent Program and was grown in CEM-SS cells for the production of stock virus pools. For each assay, a pre-titered aliquot of virus was removed from the freezer (−80° C.) and allowed to thaw slowly to room temperature in a biological safety cabinet. The virus was resuspended and diluted into tissue culture medium such that the amount of virus added to each well in a volume of 50 μl was the amount determined to give between 85 to 95% cell killing at 6 days post-infection.
(§1) The format of the test plate was standardized as follows. Each plate contains cell control wells (cells only), virus control wells (cells plus virus), drug cytotoxicity wells (cells plus drug only), drug colorimetric control wells (drug only), as well as experimental wells (drug plus cells plus virus). The final volume in each well was 200 μl.
At assay termination, the assay plates were stained with the soluble tetrazolium-based dye MTS (CellTiter96 Reagent, Promega) to determine cell viability and quantify compound toxicity. […] At termination of the assay, 20 μl of MTS reagent was added per well. The microtiter plates were then incubated 4-6 hrs at 37° C. for the HIV cytoprotection assay; the incubation intervals were chosen based on empirically determined times for optimal dye reduction. Adhesive plate sealers were used in place of the lids, the sealed plate was inverted several times to mix the soluble formazan product and the plate was read spectrophotometrically at 490/650 nm with a Molecular Devices Vmax plate reader.
Combination antiviral assays were performed with CEM-SS cells utilizing the HIV-1IIIB strain of virus as described above.
The expected additive antiviral protection was subtracted from the experimentally determined antiviral activity at each combination concentration resulting in a positive value (synergy), a negative value (antagonism), or zero (additivity). The results of the combination assays are presented three dimensionally at each combination concentration, yielding a surface of activity extending above (synergy) or below (antagonism) the plane of additivity. The volume of the surface is calculated and expressed as a synergy volume (μM^2%) calculated at the 95% confidence interval.
Slightly synergistic activity and highly synergistic activity have been defined as yielding synergy volumes of 50-100 μM^2% and >100 μM^2%, respectively.

CEM-SS cells = assay: Cellular cytotoxicity by MTS staining in the combination assay; type: cell-based; settings: combinations with other anti-HIV agents; Compound A 4 nM high-test concentration
Description: as §1, with “μl. Samples were evaluated with triplicate measurements using a checkerboard dilution scheme; […]; antiviral efficacy and cellular cytotoxicity were monitored by MTS staining at the experimental endpoint.” for “μl.”
At assay termination, the assay plates were stained with the soluble tetrazolium-based dye MTS (CellTiter96 Reagent, Promega) to determine cell viability and quantify compound toxicity. MTS is metabolized by the mitochondrial enzymes of metabolically active cells to yield a soluble formazan product, allowing the rapid quantitative analysis of cell viability and compound cytotoxicity. […] The microtiter plates were then incubated 4-6 hrs at 37° C. for the HIV cytoprotection assay; the incubation intervals were chosen based on empirically determined times for optimal dye reduction. Adhesive plate sealers were used in place of the lids, the sealed plate was inverted several times to mix the soluble formazan product and the plate was read spectrophotometrically at 490/650 nm with a Molecular Devices Vmax plate reader.

Cc1cn([C@H]2C[C@H](N=[N+]=[N-])[C@@H](CO)O2)c(=O)[nH]c1=O [AZT, zidovudine]
Antagonism Volume, Result 1 (HIV-1IIIB): −21 μM^2% | Synergy Volume, Result 1 (HIV-1IIIB): 46 μM^2% | Antagonism Volume, Result 2 (HIV-1IIIB): −44 μM^2% | Synergy Volume, Result 2 (HIV-1IIIB): 19 μM^2% | Antagonism Volume, Result 3 (HIV-1IIIB): −23 μM^2% | Synergy Volume, Result 3 (HIV-1IIIB): 57 μM^2% | Mean Antagonism Volume (HIV-1IIIB): −29.3 μM^2% | Mean Synergy Volume (HIV-1IIIB): 40.7 μM^2%

COc1cc2c(cc1Cc1cccc(Cl)c1F)c(=O)c(C(=O)O)cn2[C@H](CO)C(C)C [Compound A, (S)-6-(3-Chloro-2-fluorobenzyl)-1-(1-hydroxymethyl-2-methylpropyl)-7-methoxy-4-oxo-1,4-dihydroquinoline-3-carboxylic acid]
synergistic cytotoxicity (CEM-SS cells): no evidence of synergistic cytotoxicity

O=C1Nc2ccc(Cl)cc2[C@@](C#CC2CC2)(C(F)(F)F)O1 [EFV, efavirenz]
Antagonism Volume, Result 1 (HIV-1IIIB): −9 μM^2% | Synergy Volume, Result 1 (HIV-1IIIB): 26 μM^2% | Antagonism Volume, Result 2 (HIV-1IIIB): 0 μM^2% | Synergy Volume, Result 2 (HIV-1IIIB): 54 μM^2% | Antagonism Volume, Result 3 (HIV-1IIIB): −7 μM^2% | Synergy Volume, Result 3 (HIV-1IIIB): 26 μM^2% | Mean Antagonism Volume (HIV-1IIIB): −5.3 μM^2% | Mean Synergy Volume (HIV-1IIIB): 35.3 μM^2%

CC(C)(C)NC(=O)[C@@H]1CN(Cc2cccnc2)CCN1C[C@@H](O)C[C@@H](Cc1ccccc1)C(=O)N[C@H]1c2ccccc2C[C@H]1O [IDV, indinavir]
Antagonism Volume, Result 1 (HIV-1IIIB): −7 μM^2% | Synergy Volume, Result 1 (HIV-1IIIB): 57 μM^2% | Antagonism Volume, Result 2 (HIV-1IIIB): −23 μM^2% | Synergy Volume, Result 2 (HIV-1IIIB): 13 μM^2% | Antagonism Volume, Result 3 (HIV-1IIIB): −26 μM^2% | Synergy Volume, Result 3 (HIV-1IIIB): 10 μM^2% | Mean Antagonism Volume (HIV-1IIIB): −18.7 μM^2% | Mean Synergy Volume (HIV-1IIIB): 26.7 μM^2%

Cc1c(O)cccc1C(=O)N[C@@H](CSc1ccccc1)[C@H](O)CN1C[C@H]2CCCC[C@H]2C[C@H]1C(=O)NC(C)(C)C [NFV, nelfinavir]
Antagonism Volume, Result 1 (HIV-1IIIB): −3 μM^2% | Synergy Volume, Result 1 (HIV-1IIIB): 44 μM^2% | Antagonism Volume, Result 2 (HIV-1IIIB): −3 μM^2% | Synergy Volume, Result 2 (HIV-1IIIB): 38 μM^2% | Antagonism Volume, Result 3 (HIV-1IIIB): −46 μM^2% | Synergy Volume, Result 3 (HIV-1IIIB): 20 μM^2% | Mean Antagonism Volume (HIV-1IIIB): −17.3 μM^2% | Mean Synergy Volume (HIV-1IIIB): 34. μM^2%

C[C@H](Cn1cnc2c(N)ncnc21)OCP(=O)(O)O [PMPA, tenofovir]
Antagonism Volume, Result 1 (HIV-1IIIB): −23 μM^2% | Synergy Volume, Result 1 (HIV-1IIIB): 29 μM^2% | Antagonism Volume, Result 2 (HIV-1IIIB): −4 μM^2% | Synergy Volume, Result 2 (HIV-1IIIB): 43 μM^2% | Antagonism Volume, Result 3 (HIV-1IIIB): −60 μM^2% | Synergy Volume, Result 3 (HIV-1IIIB): 13 μM^2% | Mean Antagonism Volume (HIV-1IIIB): −29.0 μM^2% | Mean Synergy Volume (HIV-1IIIB): 28.3 μM^2%
